Assays:
[1] = tested on: Klebsiella pneumoniae, strain of capsular type 2, biotype d; assay: Anti-infectious protection of mice against Klebsiella pneumoniae infection; type: in vivo, hybrid mice (C57B1/6×AKR)F1; conditions: compound iv. 100 μg at -24 h; for % protection: difference of % survivors vs controls
[2] = tested on: bovine serum albumin (BSA) antigen; assay: Adjuvant activity in aqueous phase: anti-albumin antibody rate by passive hemagglutination; type: in vivo, Swiss mice; conditions: S.C., 100 μg with BSA 0.5 mg/animal in isotonic saline
Procedure: In the series of tests of which the results are indicated hereafter, the influence of the active principle according to the invention was assessed as bearing on the anti-albumin antibody rate, particularly under the following conditions.
Groups of 8 two-month-old Swiss mice received by subcutaneous injection (SC) or orally (PO) 0.5 mg of antigen constituted by the bovine serum albumin (BSA) with or without the substance tested in an isotonic saline solution. This large dose of antigen, because of its closeness to the limit paralysing dose with respect to the immunising response, elicits but a weak or no immune response in the controls; it therefore constitutes a severe criterion for showing the activity of an adjuvant substance. Thirty days later, the mice received, by the same method of administration, a further dose containing 0.1 mg of the same antigen.
The proportion of antibody was determined by passive hemagglutination by using sheep red blood cells treated with formalin and coated with the antigen studied according to the method described by A. A. HIRATA and M. W. […] (J. Immunol., 100, 641-648, 1968). Blood samples were taken 14, 28, 34 and 36 days after the first injection.

Compound | % survival D + 3 ([1]; K. pneumoniae im. 2 × 10^4) [%] | % survival D + 5 ([1]; K. pneumoniae im. 2 × 10^4) [%] | % survival D + 10 ([1]; K. pneumoniae im. 2 × 10^4) [%] | % protection ([1]; K. pneumoniae im. 2 × 10^4) [%] | % survival D + 3 ([1]; K. pneumoniae im. 1,5 × 10^4) [%] | % survival D + 5 ([1]; K. pneumoniae im. 1,5 × 10^4) [%] | % survival D + 10 ([1]; K. pneumoniae im. 1,5 × 10^4) [%] | % protection ([1]; K. pneumoniae im. 1,5 × 10^4) [%] | Titer of antibody 28th day [2]
CC(=O)N[C@H]1C(O)O[C@H](COC(C)=O)[C@@H](OC(C)=O)[C@@H]1O[C@H](C)C(=O)N[C@@H](C)C(=O)N[C@H](CCC(=O)O)C(N)=O (stereo partly drawn) [4,6-di-O-acetyl--Mur--NAc--L--Ala--D--Glu(OH)--NH2] | 97 | 84 | 63 | 47 |  |  |  |  | 
CC(=O)N[C@@H]1[C@@H](O[C@H](C)C(=O)N[C@@H](C)C(=O)N[C@H](CCC(=O)O)C(N)=O)[C@H](O)[C@@H](CO)O[C@H]1O [Mur--NAc--L-Ala--D-Glu(OH)--NH2, Mur--NAc--L--Ala--D--Glu(OH)--NH2, reference compound] |  |  |  |  | 83 | 66 | 60 | 47 | 25
CC(=O)N[C@H]1C(O)O[C@H](COC(=O)CCC(=O)O)[C@@H](O)[C@@H]1O[C@H](C)C(=O)N[C@@H](C)C(=O)N[C@H](CCC(=O)O)C(N)=O (stereo partly drawn) [6-O-succinyl-Mur-NAc--L--Ala--D--Glu,(OH)--NH2] | 100 | 91 | 63 | 44 |  |  |  |  | 
CC(=O)N[C@H]1C(O)O[C@H](CO)[C@@H](O)[C@@H]1OCC(=O)N[C@@H](C)C(=O)N[C@H](CCC(=O)O)C(N)=O (stereo partly drawn) [norMur--NAc--L-Ala--D-Glu(OH)--NH2, 2(2-acetamido-2-deoxy-3-O-D-glucopyranosyl)-acetyl-L-alanyl-D-isoglutamine] |  |  |  |  | 78 | 64 | 60 | 47 | 25

From US4327085A, “Biologically active compositions and methods of use” (Agence National de Valorisation de la Recherache (ANVAR), priority 1973, dated 1982)
